This note sets out measurements from ChEMBL document CHEMBL6096723, “Discovery of novel capsaicin analogs as TRPV1 inhibitors for the treatment of idiopathic pulmonary fibrosis” (Eur J Med Chem, 2025).

The source made the active and inactive calls. The calls are words filed in the database; no cut-off is given here.

Series [1] deals with NIH3T3. The experiment in a line: Anti-fibrotic activity in mouse NIH3T3 cells assessed as inhibition of TGFbeta-induced total collagen production at 10 uM measured after 48 hrs by Sirius Red Collagen Detection Kit relative to control. It counts as functional.
Series [2] can be described thus: Cytotoxicity against mouse NIH3T3 cells assessed as survival rate at 10 uM measured after 24 hrs by CCK-8 assay relative to control. In kind it is toxicity, cell-based. Particulars: read-out: Survival. On the technique in general: Tetrazolium dyes change colour on reduction, which living cells bring about.
Series [3] concerns L929. The experiment in a line: Anti-migratory activity in mouse L929 cells assessed as inhibition of TGFbeta1-induced migration at 10 uM measured after 24 hrs by Wound healing assay. It counts as functional, cell-based.
Series [4] deals with NIH3T3. The experiment in a line: Anti-fibrotic activity in mouse NIH3T3 cells assessed as inhibition of TGFbeta-induced total collagen production measured after 48 hrs by Sirius Red Collagen Detection Kit relative to control. To be noted: NIH3T3, 48 h. In kind it is functional, cell-based.
Series [5] relates to NIH3T3. The experiment in a line: Inhibition of TGFbeta1-induced proliferation of mouse NIH3T3 cells assessed as colony formation at 10 uM measured after 7 to 14 days by Crystal violet staining based assay. Particulars: time 7-14 day. It counts as functional, cell-based.

The inhibition is the drop in the measured response relative to a control, in per cent. As usually defined, the IC50 is the midpoint of a concentration-inhibition curve.

On to `CCCCCCCCC(=O)NCc1ccc(OC(C)=O)c(OC(C)=O)c1`, for which the inhibition at 10 µM in series [1] is 66%. Also, in series [2], the viability at 24 h, 10 µM was 137%.

For `CCCCCCCCC(=O)NCc1ccc(OC(C)=O)c(OC)c1`, in series [1], the inhibition at 10 µM turned out to be 56.4%. Moreover, the viability at 24 h, 10 µM in series [2] was found to be 129%.

Take `CCCCCC(=O)NCc1ccc(OC)c(OC)c1`: the inhibition at 10 µM in series [1] was -9.02%. For the same compound, the viability at 24 h, 10 µM in series [2] was 85.8%.

Take `CCCCC(=O)NCc1ccc(OC)c(OC)c1`: in series [1], the inhibition at 10 µM is -2.64%. Besides, the viability at 24 h, 10 µM in series [2] is 86%.

In the case of `COc1ccc(CNC(=O)CCCCc2ccccc2)cc1OC`, the inhibition at 10 µM in series [1] is -9.64%. Moreover, the viability at 24 h, 10 µM in series [2] came to 91.2%.

`O=C(CCc1ccccc1)CC(O)CCc1ccccc1` (configuration not stated): the inhibition at 10 µM in series [1] came out at 62.9%. The viability at 24 h, 10 µM in series [2] was 111%.

For the compound `O=C(CCCCc1ccccc1)CCc1ccccc1`, the inhibition at 10 µM in series [1] is 58.8%. The viability at 24 h, 10 µM in series [2] stood at 94.1%.

On to `COC(/C=C/C=C/c1ccccc1)CCc1ccc(O)cc1` (configuration not stated), for which, in series [1], the inhibition at 10 µM worked out at 57.7%. Moreover, in series [2], the viability at 24 h, 10 µM was 111%.

`COc1ccc(CCC(/C=C/C=C/c2ccccc2)OC)cc1O` (configuration not stated): the inhibition at 10 µM in series [1] is 63%. Besides, the viability at 24 h, 10 µM in series [2] was 93.2%.

With `COc1cc(/C=C/C(=O)CC(O)/C=C/c2ccc(O)c(OC)c2)ccc1O` (configuration not stated), the inhibition at 10 µM in series [1] was 19.4%. Moreover, the viability at 24 h, 10 µM in series [2] was 85%.

As for `C(=C\C=C\c1ccccc1)/C=C/Cc1ccccc1`, the inhibition at 10 µM in series [1] was found to be 57.5%. Besides, the viability at 24 h, 10 µM in series [2] is -2.34%.

Regarding `CCCCCC(=O)NCc1ccc(O)c(O)c1`, in series [1], the inhibition at 10 µM was found to be 60.2%. The viability at 24 h, 10 µM in series [2] is 118%.

Turning to `CCCCCCCCCC(=O)NCc1ccc(OC)c(OC)c1`, the inhibition at 10 µM in series [1] is -5.71%. In series [2], the viability at 24 h, 10 µM turned out to be 101%.

Consider `CCCCCCCC(=O)NCc1ccc(O)c(O)c1`, for which the inhibition at 10 µM in series [1] stood at 58.1%. Also, in series [2], the viability at 24 h, 10 µM was 133%.

As to `OC(CCCCc1ccccc1)CCc1ccccc1` (configuration not stated), the outcome in series [3] was Active. The IC50 in series [4] is 1570 nM. Besides, in series [1], the inhibition at 10 µM is 72.2%. In series [2], the viability at 24 h, 10 µM was found to be 74.1%.

`CCCCCCCCC(=O)NCc1ccc(O)c(O)c1`: in series [1], the inhibition at 10 µM was found to be 61.4%. Moreover, in series [2], the viability at 24 h, 10 µM was found to be 90.5%.

Regarding `CCCCC(=O)NCc1ccc(O)c(O)c1`, the inhibition at 10 µM in series [1] stood at 54.2%. Besides, in series [2], the viability at 24 h, 10 µM was determined as 123%.

Regarding `COc1ccc(CNC(=O)CC(C)C)cc1OC`, the inhibition at 10 µM in series [1] is -41.7%. For the same compound, the viability at 24 h, 10 µM in series [2] was 88.2%.

`COC(=O)c1ccc2c(c1)NC(=O)/C2=C(\Nc1ccc(N(C)C(=O)CN2CCN(C)CC2)cc1)c1ccccc1` [NINTEDANIB]: in series [4], the IC50 amounted to 270 nM. Further, the inhibition entry in series [5] is “Active”. In addition, the inhibition at 10 µM in series [1] stood at 89.5%. Also, the viability at 24 h, 10 µM in series [2] was determined as 20.5%.

For the compound `O=C(CCCCc1ccccc1)NCc1ccc(O)c(O)c1`, the inhibition at 10 µM in series [1] was 65.2%. For the same compound, in series [2], the viability at 24 h, 10 µM amounted to 118%.

As to `CCCCCCCCC(=O)NCc1ccc(O)c(OC)c1` [NONIVAMIDE], the inhibition at 10 µM in series [1] came out at 58.7%. Besides, the viability at 24 h, 10 µM in series [2] was determined as 92%.

As for `COc1ccc(CCC(=O)CCCCc2cccc(O)c2)cc1O`, the inhibition at 10 µM in series [1] is 60.6%. In addition, in series [2], the viability at 24 h, 10 µM amounted to 95.7%.

On to `CCCCCCCC(=O)NCc1ccc(OC)c(OC)c1`, for which the inhibition at 10 µM in series [1] was 11.6%. In series [2], the viability at 24 h, 10 µM amounted to 103%.

`CC(=O)Oc1ccc(CNC(=O)CC(C)C)cc1OC(C)=O`: in series [1], the inhibition at 10 µM came to 11.2%. Also, the viability at 24 h, 10 µM in series [2] came to 124%.

Turning to `O=C(CC/C=C/c1ccccc1)CCc1ccccc1`, the inhibition at 10 µM in series [1] turned out to be 55.3%. For the same compound, the viability at 24 h, 10 µM in series [2] was -1.47%.

With `COc1cc(CNC(=O)CCCCCCC(C)C)ccc1O` [DIHYDROCAPSAICIN], in series [4], the IC50 amounted to 20400 nM. Also, the inhibition at 10 µM in series [1] turned out to be 50%. The viability at 24 h, 10 µM in series [2] worked out at 92.3%.

Regarding `O=C(CCCCc1ccccc1)CCc1ccc(O)cc1`, the inhibition at 10 µM in series [1] came to 49.7%. Also, the viability at 24 h, 10 µM in series [2] was 117%.

With `COc1ccc(CCC(=O)CC/C=C/c2ccccc2)cc1`, the inhibition at 10 µM in series [1] is 57.7%. Also, the viability at 24 h, 10 µM in series [2] turned out to be 38.8%.

Regarding `CCCCCCCC(=O)NCc1ccc(OC(C)=O)c(OC(C)=O)c1`, the inhibition at 10 µM in series [1] was determined as 56.3%. In addition, the viability at 24 h, 10 µM in series [2] stood at 151%.

As to `O=C(CC/C=C/c1ccccc1)CCc1ccc(O)cc1`, the inhibition at 10 µM in series [1] came out at 40.1%. Besides, the viability at 24 h, 10 µM in series [2] was -3.97%.

In the case of `COc1ccc(CCC(=O)CCCCc2cccc(O)c2)cc1`, the IC50 in series [4] worked out at 2080 nM. For the same compound, the inhibition entry in series [5] was “Active”. Also, the inhibition at 10 µM in series [1] was 67.6%. In series [2], the viability at 24 h, 10 µM was determined as 91.1%.

As to `CCCCCCCCCC(=O)NCc1ccc(OC(C)=O)c(OC(C)=O)c1`, in series [4], the half-inhibitory concentration (IC50) worked out at 2630 nM. For the same compound, in series [5], the inhibition result was “Active”. Further, the inhibition at 10 µM in series [1] was 68.9%. The viability at 24 h, 10 µM in series [2] is 141%.

Take `CCCCCCCCCC(=O)NCc1ccc(O)c(O)c1`: the inhibition at 10 µM in series [1] was 64.8%. Moreover, the viability at 24 h, 10 µM in series [2] is 121%.

In the case of `CC(=O)Oc1ccc(CCC(CCCCc2ccccc2)OC(C)=O)cc1OC(C)=O` (configuration not stated), the inhibition at 10 µM in series [1] stood at 51.9%. In addition, in series [2], the viability at 24 h, 10 µM is 111%.

For `CCCCCC(=O)NCc1ccc(OC(C)=O)c(OC(C)=O)c1`, in series [1], the inhibition at 10 µM came out at 50.9%. The viability at 24 h, 10 µM in series [2] came to 138%.

In the case of `COc1cc(CCC(O)CC/C=C/c2ccccc2)ccc1O` (configuration not stated), in series [1], the inhibition at 10 µM stood at 43.7%. In addition, the viability at 24 h, 10 µM in series [2] is 103%.

Consider `OC(/C=C/C=C/c1ccccc1)CCc1ccccc1` (configuration not stated), for which the inhibition at 10 µM in series [1] is 61.9%. The viability at 24 h, 10 µM in series [2] was 119%.

Consider `Oc1ccc(/C=C/CCC(O)CCc2ccc(O)cc2)cc1` (configuration not stated), for which the inhibition at 10 µM in series [1] turned out to be 60.9%. Besides, the viability at 24 h, 10 µM in series [2] turned out to be 132%.

As to `O=C(/C=C/c1ccc(O)cc1)CC(O)/C=C/c1ccc(O)cc1` (configuration not stated), the outcome in series [3] was Active. The IC50 in series [4] worked out at 4760 nM. In series [1], the inhibition at 10 µM worked out at 72.8%. Also, the viability at 24 h, 10 µM in series [2] is 101%.

As for `CC(=O)Oc1ccc(CNC(=O)CCCCc2ccccc2)cc1OC(C)=O`, the IC50 in series [4] was 1430 nM. The inhibition result in series [5] is “Active”. In addition, the inhibition at 10 µM in series [1] was 70.6%. Moreover, the viability at 24 h, 10 µM in series [2] was found to be 129%.

Regarding `CC(C)CC(=O)NCc1ccc(O)c(O)c1`, in series [1], the inhibition at 10 µM is 10.4%. The viability at 24 h, 10 µM in series [2] came out at 115%.

For `Oc1ccc(CCC(O)CC/C=C/c2ccccc2)cc1O` (configuration not stated), the inhibition at 10 µM in series [1] worked out at 56.6%. Moreover, the viability at 24 h, 10 µM in series [2] came out at 131%.

As for `CCCCC(=O)NCc1ccc(OC(C)=O)c(OC(C)=O)c1`, in series [1], the inhibition at 10 µM is 53%. In series [2], the viability at 24 h, 10 µM was 131%.

Regarding `COc1ccc(CCCCC(O)CCc2ccc(OC)c(O)c2)c(OC)c1` (configuration not stated), the IC50 in series [4] turned out to be 21900 nM. In series [1], the inhibition at 10 µM was 68.5%. Moreover, the viability at 24 h, 10 µM in series [2] worked out at 114%.

For the compound `COc1cc(/C=C/C(O)CC(=O)/C=C/c2ccc(O)cc2)ccc1O` (configuration not stated), the inhibition at 10 µM in series [1] was -41.6%. For the same compound, the viability at 24 h, 10 µM in series [2] was determined as 88.9%.

Turning to `COc1ccc(OC)c(CCCCC(=O)CCc2ccc(OC)c(O)c2)c1`, the inhibition at 10 µM in series [1] worked out at 59.2%. Besides, in series [2], the viability at 24 h, 10 µM turned out to be 96.8%.

Consider `CC(=O)Oc1ccc(/C=C/C(=O)Cc2ccccc2)cc1OC(C)=O`, for which the inhibition at 10 µM in series [1] turned out to be 18.8%. Moreover, the viability at 24 h, 10 µM in series [2] is 149%.

With `OC(CCc1ccccc1)CC(O)CCc1ccccc1` (configuration not stated), the inhibition at 10 µM in series [1] came to 46.9%. For the same compound, the viability at 24 h, 10 µM in series [2] amounted to 101%.

For `COc1cc(CNC(=O)CCCC/C=C/C(C)C)ccc1O` [CAPSAICIN], the inhibition at 10 µM in series [1] was 35.3%. Further, the viability at 24 h, 10 µM in series [2] was 98.6%.
